Test results from patent US9023789B2, “Amylin analogs and pharmaceutical compositions thereof” (Novo Nordisk A/S, priority 2012, dated 2015).
≈ marks a conversion by molar mass, not a printed value. Read-outs that look alike come from different tables or passages of the source. Numbered stars: 1 amine (or outer) side, 2 acyl side, 3 side chain; on linkers, the order of the positions; unused ones are H or OH. Bridge positions count the residues as written; N and C are the ends. Side chains are listed from the residue outwards. Peptide text beside a SMILES is read from it. * marks the point of attachment. C20 diacid = O=C(O)CCCCCCCCCCCCCCCCCCC(=O)*; γGlu = O=C(O)[C@H](CCC(=O)[*:2])N[*:1]

Legend:
[1] = biological target: T1, human calcitonin (a) receptor in BHK570 cells (Homo sapiens, UniProt P30988); assay: ASSAY (II)a functional assay, human calcitonin receptor (CRE luciferase); type: cell-based; details: read-out: hCTR funct. EC50
T1 construct: expressed in transfected cells
T1 sequence (P30988 25-474): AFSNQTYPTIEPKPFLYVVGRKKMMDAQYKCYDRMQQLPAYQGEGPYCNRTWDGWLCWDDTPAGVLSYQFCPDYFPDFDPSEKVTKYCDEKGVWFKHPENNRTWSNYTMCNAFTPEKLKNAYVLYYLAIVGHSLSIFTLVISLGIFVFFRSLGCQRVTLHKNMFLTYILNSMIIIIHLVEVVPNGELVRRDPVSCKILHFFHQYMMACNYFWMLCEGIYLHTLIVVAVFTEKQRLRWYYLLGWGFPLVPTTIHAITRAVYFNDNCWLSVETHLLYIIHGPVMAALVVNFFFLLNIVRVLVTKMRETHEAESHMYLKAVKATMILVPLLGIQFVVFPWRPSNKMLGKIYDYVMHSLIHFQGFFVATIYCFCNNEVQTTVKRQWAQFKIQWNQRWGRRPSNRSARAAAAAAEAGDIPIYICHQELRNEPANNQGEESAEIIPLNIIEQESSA
Procedure, shortened: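 Cells were seeded and cultured overnight, then incubated with standard or sample for 3 h at 37° C in serum-containing medium at pH 7.4. The medium was then swapped for PBS, LucLite was added for 30 min at room temperature, and luminescence was recorded. Cells were BHK with CRE-luc and calcitonin receptor, ± RAMP-3.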

[2] = ASSAY (IV) determination of solubility; type: physicochemical
Procedure, shortened: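 Dissolve polypeptide in water ([…] stock); combine 1:1 with each 100 mM buffer (glycylglycine pH 3.0/4.0/5.0; bistrispropane pH 6.0/6.5/7.0/7.5/8.0); hold 18 hours at room temperature; centrifuge; quantify polypeptide by UPLC.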

[3] = biological target: T2, human amylin receptor (membranes from Amylin 3(a)/CRE-luc cells) (Homo sapiens, UniProt O60896+P30988); assay: ASSAY (V) binding to the human amylin receptor (SPA, 125I-rat amylin); details: for IC50: Table 4, read-out: hAmylin-R bind IC50;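 on all read-outs here: competition binding of cell membranes (35 ng/µL) mixed with SPA beads in 384-well plates at 40 µL total volume, read by scintillation counting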
T2 construct: expressed in transfected cells
T2 sequence (P30988 25-474): T1 sequence (P30988 25-474)
T2 sequence (O60896 24-148 partner): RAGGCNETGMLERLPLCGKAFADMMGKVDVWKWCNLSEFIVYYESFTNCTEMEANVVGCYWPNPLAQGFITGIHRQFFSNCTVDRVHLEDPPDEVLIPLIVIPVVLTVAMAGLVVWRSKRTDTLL

[4] = biological target: T3, rat amylin receptor (rat calcitonin receptor + rat RAMP 3) (Rattus norvegicus, UniProt P32214+Q9JJ73); assay: ASSAY (VI) binding to the rat amylin receptor; details: for IC50: binding to rat amylin receptor, read-out: rAmylin-R bind IC50
T3 construct: expressed in transfected cells; host or cells: BHK tk'ts 13 (transient, FuGENE 6), membranes
T3 sequence (P32214 25-479 isoform P32214-2 limits assumed): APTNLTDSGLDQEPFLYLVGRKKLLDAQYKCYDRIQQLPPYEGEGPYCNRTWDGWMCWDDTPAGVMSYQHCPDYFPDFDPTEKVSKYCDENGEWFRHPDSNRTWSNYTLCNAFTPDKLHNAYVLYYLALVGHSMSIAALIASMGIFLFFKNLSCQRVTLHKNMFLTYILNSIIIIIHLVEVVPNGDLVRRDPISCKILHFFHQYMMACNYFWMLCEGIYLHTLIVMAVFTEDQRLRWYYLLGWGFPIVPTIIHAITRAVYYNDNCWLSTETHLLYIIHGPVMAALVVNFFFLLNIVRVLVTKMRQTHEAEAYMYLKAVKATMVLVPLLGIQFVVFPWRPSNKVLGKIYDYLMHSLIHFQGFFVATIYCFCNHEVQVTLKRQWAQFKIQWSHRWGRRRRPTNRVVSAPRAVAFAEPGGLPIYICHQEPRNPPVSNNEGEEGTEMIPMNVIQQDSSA
T3 sequence (Q9JJ73 23-147 partner): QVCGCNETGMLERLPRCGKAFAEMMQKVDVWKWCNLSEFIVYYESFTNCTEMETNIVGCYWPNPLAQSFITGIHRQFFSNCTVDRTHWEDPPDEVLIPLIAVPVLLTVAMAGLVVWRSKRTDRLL
Procedure, shortened: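 Binding to the rat amylin receptor was determined with membrane preparations. The receptor was expressed by transiently transfecting BHK tk′ts 13 cells with rat calcitonin receptor, using FuGENE® 6 (Roche) according to the manufacturer's recommendations. Roughly 48 hours later the cells were harvested and their membranes isolated.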

[5] = biological target: T4, human calcitonin receptor (Homo sapiens, UniProt P30988); assay: ASSAY (VII) binding to the human calcitonin receptor (SPA, 125I-Calcitonin); details: read-out: hCTR bind IC50;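 further: cell membranes (35 ng/µL) combined with SPA beads in 40 µL of pH 7.4 Hepes buffer, 384-well format, signal counted on a TopCounter instrument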
T4 construct: expressed in transfected cells
T4 sequence (P30988 25-474): T1 sequence (P30988 25-474)

rat calcitonin receptor = biological target: T5, rat calcitonin receptor (Rattus norvegicus, UniProt P32214); assay: ASSAY (VIII) binding to the rat calcitonin receptor; details: Table 7, read-out: rCTR bind IC50
T5 construct: expressed in transfected cells; host or cells: BHK tk'ts 13 (transient, FuGENE 6), membranes
T5 sequence (P32214 25-479 isoform P32214-2 limits assumed): T3 sequence (P32214 25-479 isoform P32214-2 limits assumed)
Procedure, shortened: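 Rat calcitonin receptor is expressed transiently in BHK tk′ts 13 cells cultured in DMEM with 10% FBS. Roughly two days (approximately 48 hours) post-transfection, cells are harvested for membrane preparation.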

[6] = bistrispropane buffer, pH 6.5, read-out: Solubility pH 6.5 Concentration
[7] = bistrispropane buffer, pH 7.5, read-out: Solubility pH 7.5 Concentration
[8] = bistrispropane buffer, pH 6.0, read-out: Solubility pH 6.0 Concentration
[9] = bistrispropane buffer, pH 7.0, read-out: Solubility pH 7.0 Concentration
[10] = bistrispropane buffer, pH 8.0, read-out: Solubility pH 8.0 Concentration
[11] = glycylglycine buffer, pH 3.0, read-out: Solubility pH 3.0 Concentration
[12] = glycylglycine buffer, pH 4.0, read-out: Solubility pH 4.0 Concentration
[13] = glycylglycine buffer, pH 5.0, read-out: Solubility pH 5.0 Concentration
[14] = Table 5, selectivity, hCTR bind IC50 / hAmylin-R bind IC50
[15] = Table 5a, selectivity, hCTR bind IC50 / hAmylin-R bind IC50
[16] = Table 7, human binding selectivity, included for comparison
[17] = Table 7a (preferred compounds), human binding selectivity, included for comparison
[18] = ratio of human calcitonin receptor binding IC50 to human amylin receptor binding IC50
[19] = Table 7, rat binding selectivity, rCTR IC50 / rAmylin-R IC50
[20] = Table 7a (preferred compounds), rat binding selectivity, rCTR IC50 / rAmylin-R IC50
[21] = ratio of rCTR bind IC50 to rAmylin-R bind IC50

Row | EC50 [1] | solubility at 18 h [2, 6] | solubility at 18 h [2, 7] | solubility at 18 h [2, 8] | solubility at 18 h [2, 9] | solubility at 18 h [2, 10] | solubility at 18 h [2, 11] | solubility at 18 h [2, 12] | solubility at 18 h [2, 13] | IC50 [3] | Ratio hCT/hAmylin binding [3, 14] | Ratio hCT/hAmylin binding [3, 15] | Ratio hCT/hAmylin binding [3, 16] | Ratio hCT/hAmylin binding [3, 17] | Ratio hCT/hAmylin binding [3, 18] | IC50 ([4]; Table 7) | Ratio rCT/rAmylin binding [4, 19] | Ratio rCT/rAmylin binding [4, 20] | Ratio rCT/rAmylin binding [4, 21] | IC50 [5] | Structure (SMILES) | further results
1 | 3.64 nM | ≥ 200 µM | 187 µM (≈ 829 µg/mL) | ≥ 200 µM | ≥ 200 µM | 102 µM (≈ 452 µg/mL) | ≥ 200 µM | ≥ 200 µM | ≥ 200 µM | 0.281 nM | 151.1 | 151.1 | 151.1 | 151.1 | 151.1 | 0.504 nM | 116.0 | 116.0 | 116.0 | 42.5 nM | CC[C@H](C)[C@H](NC(=O)[C@H](C)NC(=O)CNC(=O)[C@H](Cc1ccccc1)NC(=O)[C@H](CC(N)=O)NC(=O)[C@@H]1CCCN1C(=O)[C@H](CO)NC(=O)[C@H](CO)NC(=O)[C@H](Cc1c[nH]cn1)NC(=O)[C@H](CCCNC(=N)N)NC(=O)[C@H](CC(C)C)NC(=O)[C@H](Cc1ccccc1)NC(=O)[C@H](CC(=O)O)NC(=O)[C@H](C)NC(=O)[C@H](CC(C)C)NC(=O)[C@H](CCCNC(=N)N)NC(=O)[C@H](CCC(N)=O)NC(=O)[C@@H](NC(=O)[C@H](C)NC(=O)[C@@H]1CSSC[C@H](NC(=O)[C@@H](N)CCCCNC(=O)CC[C@H](NC(=O)CCCCCCCCCCCCCCCCCCC(=O)O)C(=O)O)C(=O)N[C@@H](CC(N)=O)C(=O)N[C@@H]([C@@H](C)O)C(=O)N[C@@H](C)C(=O)N[C@@H]([C@@H](C)O)C(=O)N1)[C@@H](C)O)C(=O)N1CCC[C@H]1C(=O)N[C@@H](CO)C(=O)N[C@@H](CO)C(=O)N[C@H](C(=O)N[C@@H](CC(N)=O)C(=O)N[C@H](C(=O)NCC(=O)N1CCC[C@H]1C(=O)N[C@@H](CCCNC(=N)N)C(=O)N[C@H](C(=O)N[C@@H](Cc1ccc(O)cc1)C(N)=O)[C@@H](C)O)C(C)C)[C@@H](C)O [Example 129] (H-K([γGlu-C20 diacid])CNTATCATQRLADFLRHSSPNFGAIPSSTNVGPRTY-NH2; disulfide 2-7 (inferred); N-terminus assumed) | Ratio hCT/hAmylin binding ([3]; Table 5b, selectivity, hCTR bind IC50 / hAmylin-R bind IC50): 151.1; Ratio hCT/hAmylin binding ([3]; Table 5c, selectivity, hCTR bind IC50 / hAmylin-R bind IC50): 151.1; IC50 (rat calcitonin receptor): 58.5 nM
2 | 2.54 nM | ≥ 200 µM | ≥ 200 µM | ≥ 200 µM | ≥ 200 µM | ≥ 200 µM | ≥ 200 µM | ≥ 200 µM | ≥ 200 µM | 0.387 nM | 11.1 | 11.1 | 11.1 | 11.1 | 11.1 | 0.958 nM | 34.6 | 34.6 | 34.6 | 4.28 nM | CC[C@H](C)[C@H](NC(=O)[C@H](C)NC(=O)CNC(=O)[C@H](Cc1ccccc1)NC(=O)[C@H](CC(N)=O)NC(=O)[C@@H]1CCCN1C(=O)[C@H](CO)NC(=O)[C@H](CO)NC(=O)[C@H](Cc1c[nH]cn1)NC(=O)[C@H](CCCNC(=N)N)NC(=O)[C@H](CC(C)C)NC(=O)[C@H](Cc1ccccc1)NC(=O)[C@H](CCC(=O)O)NC(=O)[C@H](C)NC(=O)[C@H](CC(C)C)NC(=O)[C@H](CCCNC(=N)N)NC(=O)[C@H](CCC(N)=O)NC(=O)[C@@H](NC(=O)[C@H](C)NC(=O)[C@@H]1CSSC[C@H](NC(=O)[C@@H](N)CCCCNC(=O)CC[C@H](NC(=O)CCCCCCCCCCCCCCCCCCC(=O)O)C(=O)O)C(=O)N[C@@H](CC(N)=O)C(=O)N[C@@H]([C@@H](C)O)C(=O)N[C@@H](C)C(=O)N[C@@H]([C@@H](C)O)C(=O)N1)[C@@H](C)O)C(=O)N1CCC[C@H]1C(=O)N[C@@H](CO)C(=O)N[C@@H](CO)C(=O)N[C@H](C(=O)N[C@@H](CC(N)=O)C(=O)N[C@H](C(=O)NCC(=O)N[C@@H](Cc1c[nH]cn1)C(=O)N[C@@H](CCC(=O)O)C(=O)N[C@H](C(=O)N[C@@H](Cc1ccc(O)cc1)C(N)=O)[C@@H](C)O)C(C)C)[C@@H](C)O [Example 107] (H-K([γGlu-C20 diacid])CNTATCATQRLAEFLRHSSPNFGAIPSSTNVGHETY-NH2; disulfide 2-7 (inferred)) | IC50 (rat calcitonin receptor): 33.1 nM
